Test results as given in patent publication US20260176289A1, “SMALL MOLECULE INHIBITORS OF KRAS PROTEINS” (Merck Sharp & Dohme LLC, priority 2022, published 2026).
Read-outs that look alike come from different tables or passages of the source.

How the values were obtained:
KRAS-WT = KRAS-WT (Homo sapiens, UniProt P01116); experiment: SOS-catalyzed nucleotide exchange assay (Procedure A, TR-FRET), KRAS-WT; format: biochemical; details: nucleotide exchange, read-out: KRAS WT GNE IC50
Summary of the method: (§1)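 RAS (G12C carries C51S/C80L/C118S) loaded with Bodipy-GDP, complexed with Tb-streptavidin; cpd 60 min RT; + SOS/3 mM GTP. G12C 3/40 nM, WT 1/40, NRAS 1.25/40 nM RAS/SOS, 60 min; G12V 1.25/160 nM, 90 min. Normalized to DMSO and saturating inhibitor; 4PL fit.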

[1] = target: KRAS-G12C (C51S/C80L/C118S) (Homo sapiens, UniProt P01116, C118S/C51S/C80L/G12C); experiment: SOS-catalyzed nucleotide exchange assay (Procedure A, TR-FRET), KRAS-G12C; format: biochemical; details: nucleotide exchange, Procedure A; read-out: KRAS G12C GNE IC50
Sequence of KRAS-G12C (C51S/C80L/C118S) (P01116 with tags, fused parts or gaps isoform P01116-2 G12C/C51S/C80L/C118S): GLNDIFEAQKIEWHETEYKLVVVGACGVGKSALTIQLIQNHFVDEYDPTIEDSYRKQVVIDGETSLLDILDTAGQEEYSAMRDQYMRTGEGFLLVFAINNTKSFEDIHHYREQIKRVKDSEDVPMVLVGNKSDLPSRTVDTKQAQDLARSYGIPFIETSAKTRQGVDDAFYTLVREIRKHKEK
Summary of the method: as §1

KRAS-G12D = KRAS-G12D (Homo sapiens, UniProt P01116, G12D); experiment: SOS-catalyzed nucleotide exchange assay (Procedure A, TR-FRET), KRAS-G12D; format: biochemical; details: nucleotide exchange, read-out: KRAS G12D GNE IC50
Sequence of KRAS-G12D (P01116 with tags, fused parts or gaps isoform P01116-2 G12D): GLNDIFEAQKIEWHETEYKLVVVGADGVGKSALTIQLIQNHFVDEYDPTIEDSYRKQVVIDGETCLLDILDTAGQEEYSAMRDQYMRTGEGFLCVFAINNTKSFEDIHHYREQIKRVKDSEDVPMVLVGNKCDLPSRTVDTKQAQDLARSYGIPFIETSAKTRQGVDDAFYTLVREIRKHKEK
Summary of the method: (§2)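 Signal ratio (520/495 nm, excitation 340 nm) reports Bodipy-GDP retention on biotinylated RAS after SOS-catalyzed exchange with 3 mM GTP. SOS was 40 nM, except 160 nM for G12V. Room-temperature exchange lasted 60 min (90 min for G12V), following a 60 min compound preincubation.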

KRAS-G12V = KRAS-G12V (Homo sapiens, UniProt P01116, G12V); experiment: SOS-catalyzed nucleotide exchange assay (Procedure A, TR-FRET), KRAS-G12V; format: biochemical; details: nucleotide exchange, read-out: KRAS G12V GNE IC50
Sequence of KRAS-G12V (P01116 with tags, fused parts or gaps isoform P01116-2 G12V): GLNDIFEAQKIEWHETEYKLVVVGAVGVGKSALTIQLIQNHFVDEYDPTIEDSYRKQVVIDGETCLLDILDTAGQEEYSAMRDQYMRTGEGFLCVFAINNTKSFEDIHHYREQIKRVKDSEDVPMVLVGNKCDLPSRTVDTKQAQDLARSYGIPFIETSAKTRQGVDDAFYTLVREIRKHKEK
Summary of the method: as §1

KRAS-G13D = KRAS-G13D (Homo sapiens, UniProt P01116, G13D); experiment: SOS-catalyzed nucleotide exchange assay (Procedure A, TR-FRET), KRAS-G13D; format: biochemical; details: nucleotide exchange, Procedure A; read-out: KRAS G13D GNE IC50
Sequence of KRAS-G13D (P01116 with tags, fused parts or gaps isoform P01116-2 G13D): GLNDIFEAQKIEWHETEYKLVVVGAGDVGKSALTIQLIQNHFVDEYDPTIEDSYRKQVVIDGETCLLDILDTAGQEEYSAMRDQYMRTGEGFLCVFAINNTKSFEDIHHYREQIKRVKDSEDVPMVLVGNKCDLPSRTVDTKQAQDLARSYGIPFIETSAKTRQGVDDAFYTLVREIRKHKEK

HRAS = HRAS (Homo sapiens, UniProt P01112); experiment: SOS-catalyzed nucleotide exchange assay (Procedure A, TR-FRET), HRAS; format: biochemical; details: read-out: HRAS GNE IC50
Sequence of HRAS (P01112 with tags, fused parts or gaps): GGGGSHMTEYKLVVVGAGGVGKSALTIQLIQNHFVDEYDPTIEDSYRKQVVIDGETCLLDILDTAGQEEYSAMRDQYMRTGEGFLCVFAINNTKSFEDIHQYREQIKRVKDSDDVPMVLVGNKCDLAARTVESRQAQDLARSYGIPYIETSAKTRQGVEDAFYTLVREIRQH
Summary of the method: as §2

MKN-1 cells = experiment: Cellular phospho-ERK assay, MKN-1 cells (amplified wild-type KRAS); format: cell-based; details: Homo sapiens, read-out: MKN1 pERK IC50
Summary of the method: (§3)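 Cells were seeded overnight, then treated 2 h at 37° C with compound in a 10-point, 1:3 titration from 30 μM top final concentration. Lysates were assayed by AlphaLISA SureFire Ultra for p-ERK and total ERK. IC50 came from a 4-parameter logistic fit of the p-ERK/total ERK ratio.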

PANC08.13 cells = experiment: Cellular phospho-ERK assay, PANC08.13 cells (homozygous KRAS-G12D); format: cell-based; details: Homo sapiens, read-out: PANC-08.13 pERK IC50
Summary of the method: as §3

AsPC-1 cells = experiment: Cellular phospho-ERK assay, AsPC-1 cells (homozygous KRAS-G12D); format: cell-based; details: Homo sapiens, ASPC1, 2 h, read-out: AsPC1 pERK IC50
Summary of the method: as §3

SW620 cells = experiment: Cellular phospho-ERK assay, SW620 cells (homozygous KRAS-G12V); format: cell-based; details: Homo sapiens, read-out: SW620 pERK IC50
Summary of the method: as §3

NRAS = NRAS (Homo sapiens, UniProt P01111); experiment: SOS-catalyzed nucleotide exchange assay (Procedure A, TR-FRET), NRAS; format: biochemical; details: read-out: NRAS GNE IC50
Sequence of NRAS (P01111 with tags, fused parts or gaps): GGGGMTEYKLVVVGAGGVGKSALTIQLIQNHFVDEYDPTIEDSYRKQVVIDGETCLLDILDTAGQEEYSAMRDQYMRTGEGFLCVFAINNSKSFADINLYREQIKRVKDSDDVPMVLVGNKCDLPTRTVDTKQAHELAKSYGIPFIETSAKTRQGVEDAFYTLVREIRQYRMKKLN
Source text: Procedure for SOS-Catalyzed Nucleotide Exchange Assay for KRAS-WT, G12C/D/V, G13D, HRAS, and NRAS (Procedure A)
Recombinant KRAS-G12C protein used in this assay has an additional triple mutation (C51S/C80L/C118S). Whereas KRAS-WT, G12D/V, G13D, HRAS and NRAS are in context of their WT protein sequence background. Specifically, the SOS-catalyzed nucleotide exchange assay utilizes a preformed TR-FRET complex containing a specific biotinylated RAS protein (KRAS-WT, G12C/V/D, G13D, HRAS, NRAS; described above) with Bodipy-GDP, and Terbium-streptavidin. Compounds are preincubated with this complex for 60 minutes. Subsequently, recombinant human SOS protein and unlabeled GTP are added to initiate the exchange reaction. Small molecule inhibitors stabilize the Bodipy-GDP complex whereas the untreated protein rapidly exchanges Bodipy-GDP for unlabeled GTP resulting in reduced TR-FRET signal.
To assemble the preformed TR-FRET complexes, each biotinylated RAS protein is diluted to 2 μM in an EDTA Buffer (20 mM HEPES pH 7.5, 50 mM sodium chloride, 10 mM EDTA, and 0.01% Tween) and incubated at room temperature for one hour. This mixture is then further diluted to 90 nM in an Assay Buffer (20 mM HEPES pH 7.5, 150 mM sodium chloride, 10 mM magnesium chloride, and 0.005% Tween) containing 15 nM of Terbium-Streptavidin (Invitrogen, catalog #PV3577) and 900 nM of Bodipy-GDP (Invitrogen, catalog #G22360) and incubated at room temperature for six hours. It should be noted that this preformed TR-FRET complex for each of the RAS protein were made ahead of time, aliquoted and stored at −80° C. until the day of the experiment.
Each test compound (10 mM stock in DMSO) is diluted in DMSO to make a final-10-point, 3-fold dilution and is acoustically dispensed into a 384-well assay plate (Corning, catalog #3820) using an Echo 550 (Labcyte). Each well of the assay plate receives 3 μL of a specific 3×RAS preformed TR-FRET complex and 3 μL of Assay Buffer and is incubated at room temperature for 60 minutes (preincubation time). Each well then receives 3 μL of 3×recombinant human SOS protein and GTP (Sigma, G8877) in Assay Buffer and is incubated at room temperature for 30 minutes (G13D), 60 minutes (KRAS WT/G12C/D, H/NRAS) or 90 minutes for G12V. […]
The time-resolved fluorescence resonance energy transfer (TR-FRET) signal is measured on an Envision (PerkinElmer) plate reader: Excitation filter=340 nm; emission 1=495 nm; emission2=520 nm; dichroic mirror=D400/D505; delay time=[…]. The signal of each well is determined as the ratio of the emission at 520 nm to that at 495 nm. Percent effect of each well is determined after normalization to control wells containing DMSO (no effect) or a saturating concentration of inhibitor (max effect). […]

[2] = amplified wild-type KRAS, 2 hours
[3] = SW-620, 2 hours compound incubation

Sequence of KRAS-WT (P01116 with tags, fused parts or gaps isoform P01116-2): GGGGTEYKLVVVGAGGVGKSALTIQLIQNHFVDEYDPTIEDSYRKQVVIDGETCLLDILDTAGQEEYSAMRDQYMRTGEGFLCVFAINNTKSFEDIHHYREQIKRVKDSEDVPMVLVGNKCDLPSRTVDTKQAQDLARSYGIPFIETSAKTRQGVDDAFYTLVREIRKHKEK

Cc1cc2[nH]ncc2c(-c2nccc3c2sc2nc(OC[C@]4(CN(C)C)CC4(F)F)nc(N4CCOC[C@@](C)(O)C4)c23)c1C(F)(F)F [Ex-130, (6S)-4-(2-(((R)-1-((dimethylamino)-methyl)-2,2-di-fluorocyclopropyl)-methoxy)-8-(6-methyl-5-(trifluoro-methyl)-1H-indazol-4-yl)pyrido[4′,3′: 4,5]thieno[2,3-d]pyrimidin-4-yl)-6-methyl-1,4-oxaze-pan-6-ol]
IC50 (KRAS-WT): 115 nM | IC50 [1]: 101 nM | IC50 (KRAS-G12D): 20.3 nM | IC50 (KRAS-G12V): 77.2 nM | IC50 (KRAS-G13D): 75.2 nM | IC50 (HRAS): 4920 nM | IC50 (MKN-1 cells; [2]): 248 nM | IC50 (PANC08.13 cells; PANC-08-13, KRAS-G12D, 2 hours): 27.7 nM | IC50 (AsPC-1 cells; KRAS-G12D, 2 hours): 68.7 nM | IC50 (SW620 cells; SW-620, KRAS-G12V, 2 hours): 116 nM

CN(C)C[C@@]1(COc2nc(N3CCOC[C@@](C)(O)C3)c3c(n2)sc2c(-c4c(C5CC5)c(Cl)cc5[nH]ncc45)nccc23)CC1(F)F [Ex-131, (6S)-4-(8-(6-chloro-5-cyclopropyl-1H-indazol-4-yl)-2-(((R)-1-((dimeth-ylamino)methyl)-2,2-difluorocyclo-propyl)methoxy)-pyrido[4′,3′:4,5]thieno[2,3-d]pyr-imidin-4-yl)-6-methyl-1,4-oxaze-pan-6-ol]
IC50 (KRAS-WT): 11.3 nM | IC50 [1]: 97.9 nM | IC50 (KRAS-G12D): 3.57 nM | IC50 (KRAS-G12V): 18.2 nM | IC50 (KRAS-G13D): 7.21 nM | IC50 (HRAS): 389 nM | IC50 (NRAS): 5160 nM | IC50 (MKN-1 cells; [2]): 22.8 nM | IC50 (AsPC-1 cells; KRAS-G12D, 2 hours): 21.8 nM | IC50 (SW620 cells; SW-620, KRAS-G12V, 2 hours): 15.1 nM

C#Cc1c(F)ccc2cc(O)cc(-c3nccc4c3sc3nc(OC[C@@]56CCCN5C[C@H](F)C6)nc(N5CCOC[C@@](C)(O)C5)c34)c12 [Ex-135, (S)-4-(8-(8-ethynyl-7-fluoro-3-hydroxy-naphthalen-1-yl)-2-(((2R,7aS)-2-fluoro-tetrahydro-1H-pyr-rolizin-7a(5H)-yl)-methoxy)pyrido [4′,3′:4,5]thieno[2,3-d]pyrimidin-4-yl)-6-methyl-1,4-oxaze-pan-6-ol]
IC50 (KRAS-WT): 0.766 nM | IC50 [1]: 9.25 nM | IC50 (KRAS-G12D): 1.47 nM | IC50 (KRAS-G12V): 1.08 nM | IC50 (KRAS-G13D): 2.54 nM | IC50 (HRAS): 1570 nM | IC50 (NRAS): 9400 nM | IC50 (MKN-1 cells; 2 hours compound incubation): 3.86 nM | IC50 (PANC08.13 cells; PANC-08-13, 2 hours compound incubation): 1.4 nM | IC50 (AsPC-1 cells; 2 hours compound incubation): 4.61 nM | IC50 (SW620 cells; [3]): 1.5 nM

C#Cc1csc2cc3[nH]ncc3c(-c3nccc4c3sc3nc(OC[C@@]56CCCN5C[C@H](F)C6)nc(N5CCOC[C@@](C)(O)C5)c34)c12 [Ex-163, (6S)-4-(8-(5-ethyn-yl-1H-thieno[3,2-f]indazol-4-yl)-2-(((2R,7aS)-2-fluoro-tetrahydro-1H-pyr-rolizin-7a(5H)-yl)-methoxy)pyrido [4′,3′:4,5]thieno[2,3-d]pyrimidin-4-yl)-6-methyl-1,4-oxaze-pan-6-ol]
IC50 (KRAS-WT): 3.79 nM | IC50 [1]: 19.8 nM | IC50 (KRAS-G12D): 2.36 nM | IC50 (KRAS-G12V): 4.53 nM | IC50 (KRAS-G13D): 3.13 nM | IC50 (HRAS): 1450 nM | IC50 (NRAS): 7370 nM | IC50 (MKN-1 cells; 2 hours compound incubation): 20.8 nM | IC50 (AsPC-1 cells; 2 hours compound incubation): 14.6 nM | IC50 (SW620 cells; [3]): 2.29 nM
